≈ marks a conversion by molar mass, not a printed value.
What was measured:
Aurora kinase A = biological target: T1, Aurora kinase A (Homo sapiens, UniProt O14965); experiment: Inhibition of aurora A kinase using 5TAMRA-GRTGRRNSICOOH as substrate by fluorescent assay
T1 sequence (O14965 whole entry): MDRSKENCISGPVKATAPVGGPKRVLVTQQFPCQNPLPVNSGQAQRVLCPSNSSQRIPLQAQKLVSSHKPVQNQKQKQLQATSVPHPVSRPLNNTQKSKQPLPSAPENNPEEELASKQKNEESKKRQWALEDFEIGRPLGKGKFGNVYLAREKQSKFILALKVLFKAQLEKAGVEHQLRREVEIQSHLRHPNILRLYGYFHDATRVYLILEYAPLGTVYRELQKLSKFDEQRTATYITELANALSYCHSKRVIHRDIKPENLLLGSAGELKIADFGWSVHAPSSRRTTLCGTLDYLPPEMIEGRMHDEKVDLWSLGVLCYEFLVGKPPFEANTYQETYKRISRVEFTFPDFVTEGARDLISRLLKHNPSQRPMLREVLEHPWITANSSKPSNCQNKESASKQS

cells = assay type: cell-based; conditions: Homo sapiens, HCT-116, 1 h
Aurora kinase B = Aurora kinase B (Homo sapiens, UniProt Q96GD4); experiment: Inhibition of aurora B kinase using 5TAMRA-GRTGRRNSICOOH as substrate by fluorescent assay
Aurora kinase B, sequence (Q96GD4 whole entry): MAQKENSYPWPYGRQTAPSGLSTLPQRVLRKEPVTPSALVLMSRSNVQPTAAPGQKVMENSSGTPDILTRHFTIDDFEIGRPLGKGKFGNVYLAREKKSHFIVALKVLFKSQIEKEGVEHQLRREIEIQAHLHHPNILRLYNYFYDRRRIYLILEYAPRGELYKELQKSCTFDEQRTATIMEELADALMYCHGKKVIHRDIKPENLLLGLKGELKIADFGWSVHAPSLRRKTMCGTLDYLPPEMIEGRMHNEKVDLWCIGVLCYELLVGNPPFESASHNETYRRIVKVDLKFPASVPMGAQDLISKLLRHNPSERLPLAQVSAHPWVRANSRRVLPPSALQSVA

[1] = biological target: Ribosomal protein S6 kinase alpha-3 (Homo sapiens, UniProt P51812); experiment: Inhibition of RSK2
[2] = Clearance in human hepatocytes assessed per million cells; assay type: ADME, cell-based, Liver, Hepatocyte
[3] = Oral bioavailability in mouse; assay type: ADME, organism-based; conditions: in vivo
[4] = biological target: RAC-alpha serine/threonine-protein kinase (Homo sapiens, UniProt P31749); experiment: Inhibition of Akt1
[5] = biological target: Hepatocyte growth factor receptor (Homo sapiens, UniProt P08581); experiment: Inhibition of cMet
[6] = Permeability across apical to basolateral side in human Caco2 cell membrane; assay type: ADME, cell-based; conditions: Caco-2, read-out: permeability
[7] = Clearance in mouse; assay type: ADME, organism-based; conditions: in vivo
[8] = biological target: Interleukin-1 receptor-associated kinase 4 (Homo sapiens, UniProt Q9NWZ3); experiment: Inhibition of IRAK4
Interleukin-1 receptor-associated kinase 4, sequence (Q9NWZ3 whole entry): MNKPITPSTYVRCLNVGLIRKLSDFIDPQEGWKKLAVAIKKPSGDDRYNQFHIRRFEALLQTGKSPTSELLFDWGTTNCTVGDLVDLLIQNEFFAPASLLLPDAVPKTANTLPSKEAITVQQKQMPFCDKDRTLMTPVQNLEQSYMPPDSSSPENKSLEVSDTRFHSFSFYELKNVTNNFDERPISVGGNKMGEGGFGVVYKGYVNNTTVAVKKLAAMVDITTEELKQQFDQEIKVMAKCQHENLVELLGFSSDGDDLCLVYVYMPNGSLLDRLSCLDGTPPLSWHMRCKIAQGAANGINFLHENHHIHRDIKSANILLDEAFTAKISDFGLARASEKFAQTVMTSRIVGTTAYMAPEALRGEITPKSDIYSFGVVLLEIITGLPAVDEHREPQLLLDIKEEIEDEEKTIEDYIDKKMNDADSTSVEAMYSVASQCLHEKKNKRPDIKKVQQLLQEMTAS

[9] = biological target: Vascular endothelial growth factor receptor 2 (Homo sapiens, UniProt P35968); experiment: Inhibition of VEGFR2
Vascular endothelial growth factor receptor 2, sequence (P35968 whole entry): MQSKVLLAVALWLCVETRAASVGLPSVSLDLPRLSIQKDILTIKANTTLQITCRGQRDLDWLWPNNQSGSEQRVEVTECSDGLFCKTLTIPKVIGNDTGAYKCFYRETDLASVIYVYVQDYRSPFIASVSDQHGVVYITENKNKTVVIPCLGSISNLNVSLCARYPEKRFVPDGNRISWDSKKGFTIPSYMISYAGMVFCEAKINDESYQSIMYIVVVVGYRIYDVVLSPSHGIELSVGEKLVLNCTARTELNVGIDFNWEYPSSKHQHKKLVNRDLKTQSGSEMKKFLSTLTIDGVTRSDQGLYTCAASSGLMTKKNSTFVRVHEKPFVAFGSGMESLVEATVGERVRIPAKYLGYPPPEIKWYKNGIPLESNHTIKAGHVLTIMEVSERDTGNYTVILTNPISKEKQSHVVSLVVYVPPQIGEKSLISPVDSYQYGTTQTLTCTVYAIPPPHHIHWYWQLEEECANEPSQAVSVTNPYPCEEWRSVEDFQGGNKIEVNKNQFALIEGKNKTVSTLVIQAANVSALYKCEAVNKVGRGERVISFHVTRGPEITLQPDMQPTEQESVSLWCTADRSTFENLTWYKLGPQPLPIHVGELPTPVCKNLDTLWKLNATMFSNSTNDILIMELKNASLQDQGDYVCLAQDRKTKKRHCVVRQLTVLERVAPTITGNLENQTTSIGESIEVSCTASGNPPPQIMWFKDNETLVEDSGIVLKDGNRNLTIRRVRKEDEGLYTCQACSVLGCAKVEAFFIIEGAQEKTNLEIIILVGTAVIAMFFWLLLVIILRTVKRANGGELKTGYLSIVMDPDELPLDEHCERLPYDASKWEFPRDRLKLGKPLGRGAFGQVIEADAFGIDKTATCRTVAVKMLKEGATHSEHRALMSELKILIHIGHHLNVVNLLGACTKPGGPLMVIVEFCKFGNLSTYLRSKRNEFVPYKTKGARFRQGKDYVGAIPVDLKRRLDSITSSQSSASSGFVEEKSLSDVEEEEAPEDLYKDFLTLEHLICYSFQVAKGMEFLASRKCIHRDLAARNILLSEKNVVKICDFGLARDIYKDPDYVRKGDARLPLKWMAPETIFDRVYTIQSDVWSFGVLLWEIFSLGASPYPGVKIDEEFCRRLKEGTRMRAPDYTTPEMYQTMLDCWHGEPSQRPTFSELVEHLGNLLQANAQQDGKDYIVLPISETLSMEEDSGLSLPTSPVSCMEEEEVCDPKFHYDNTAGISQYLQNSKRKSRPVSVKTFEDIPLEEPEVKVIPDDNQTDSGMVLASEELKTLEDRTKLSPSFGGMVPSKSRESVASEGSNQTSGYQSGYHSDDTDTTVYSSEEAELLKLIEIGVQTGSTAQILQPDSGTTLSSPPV

Cytochrome P450 2D6 = Cytochrome P450 2D6 (Homo sapiens, UniProt P10635); experiment: inhibition of CYP2D6; assay type: ADME
[10] = biological target: Tyrosine-protein kinase Lck (Homo sapiens, UniProt P06239); experiment: Inhibition of LCK
Cytochrome P450 2C9 = Cytochrome P450 2C9 (Homo sapiens, UniProt P11712); experiment: inhibition of CYP2C9; assay type: ADME
Cytochrome P450 2C9, sequence (P11712 whole entry): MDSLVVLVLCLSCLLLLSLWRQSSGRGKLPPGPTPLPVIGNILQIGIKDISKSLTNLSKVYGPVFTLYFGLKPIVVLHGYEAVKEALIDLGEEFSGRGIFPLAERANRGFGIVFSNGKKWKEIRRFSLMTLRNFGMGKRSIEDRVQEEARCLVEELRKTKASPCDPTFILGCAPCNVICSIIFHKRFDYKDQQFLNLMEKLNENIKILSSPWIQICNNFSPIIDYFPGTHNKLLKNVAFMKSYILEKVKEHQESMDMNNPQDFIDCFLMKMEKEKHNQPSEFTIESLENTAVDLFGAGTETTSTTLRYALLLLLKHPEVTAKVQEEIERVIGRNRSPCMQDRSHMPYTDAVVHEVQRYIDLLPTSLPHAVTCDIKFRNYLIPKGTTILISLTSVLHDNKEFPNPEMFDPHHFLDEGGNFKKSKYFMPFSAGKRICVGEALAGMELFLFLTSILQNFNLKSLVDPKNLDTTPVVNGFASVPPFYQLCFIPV

[11] = Inhibition of IGRF
Cytochrome P450 3A4 = Cytochrome P450 3A4 (Homo sapiens, UniProt P08684); experiment: inhibition of CYP3A4; assay type: ADME
[12] = biological target: Rho-associated protein kinase 2 (Homo sapiens, UniProt O75116); experiment: Inhibition of Rock2
[13] = biological target: Testis-specific serine/threonine-protein kinase 2 (Homo sapiens, UniProt Q96PF2); experiment: Inhibition of TSSK2
[14] = biological target: Serine/threonine-protein kinase Chk1 (Homo sapiens, UniProt O14757); experiment: Inhibition of Chk1
Serine/threonine-protein kinase Chk1, sequence (O14757 whole entry): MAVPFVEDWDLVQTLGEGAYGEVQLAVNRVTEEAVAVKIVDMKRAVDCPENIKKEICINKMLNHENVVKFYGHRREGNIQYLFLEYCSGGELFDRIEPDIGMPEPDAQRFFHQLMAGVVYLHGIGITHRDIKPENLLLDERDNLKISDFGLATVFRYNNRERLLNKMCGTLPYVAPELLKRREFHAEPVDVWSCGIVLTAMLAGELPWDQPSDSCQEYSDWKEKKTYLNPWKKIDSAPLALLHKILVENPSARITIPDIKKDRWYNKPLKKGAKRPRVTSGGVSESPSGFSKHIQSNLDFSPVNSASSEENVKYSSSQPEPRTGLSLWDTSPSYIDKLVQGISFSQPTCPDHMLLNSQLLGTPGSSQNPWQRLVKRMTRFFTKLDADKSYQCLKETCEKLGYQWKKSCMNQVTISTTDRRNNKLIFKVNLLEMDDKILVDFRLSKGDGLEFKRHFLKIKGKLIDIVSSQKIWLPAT

[15] = biological target: Protein kinase C alpha type (Homo sapiens, UniProt P17252); experiment: Inhibition of PKCa
[16] = biological target: Serine/threonine-protein kinase PLK3 (Homo sapiens, UniProt Q9H4B4); experiment: Inhibition of PLK3
Serine/threonine-protein kinase PLK3, sequence (Q9H4B4 whole entry): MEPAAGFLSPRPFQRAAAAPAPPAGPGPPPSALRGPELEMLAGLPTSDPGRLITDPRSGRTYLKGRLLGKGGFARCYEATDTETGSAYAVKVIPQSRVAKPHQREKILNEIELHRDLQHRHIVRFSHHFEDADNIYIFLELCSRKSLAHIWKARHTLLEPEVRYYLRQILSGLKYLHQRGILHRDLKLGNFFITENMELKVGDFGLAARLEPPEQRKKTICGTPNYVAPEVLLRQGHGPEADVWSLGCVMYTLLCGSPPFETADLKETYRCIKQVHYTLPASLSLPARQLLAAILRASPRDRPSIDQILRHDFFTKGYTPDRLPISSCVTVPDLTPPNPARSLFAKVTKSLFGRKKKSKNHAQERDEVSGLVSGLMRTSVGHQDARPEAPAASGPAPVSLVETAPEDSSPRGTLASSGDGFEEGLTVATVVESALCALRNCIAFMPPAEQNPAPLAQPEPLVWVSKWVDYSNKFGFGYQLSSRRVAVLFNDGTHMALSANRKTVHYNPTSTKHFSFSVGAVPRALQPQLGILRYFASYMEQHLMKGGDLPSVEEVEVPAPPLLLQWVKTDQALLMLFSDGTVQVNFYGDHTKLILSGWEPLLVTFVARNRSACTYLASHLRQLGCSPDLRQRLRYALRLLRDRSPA

[17] = Aqueous solubility of the compound; assay type: physicochemical; conditions: buffer
hERG (KCNH2) = hERG (KCNH2) (Homo sapiens, UniProt Q12809); experiment: Inhibition of human ERG assessed as Rb efflux at 1.5 ug/ml
[18] = biological target: Calcium/calmodulin-dependent protein kinase type IV (Homo sapiens, UniProt Q16566); experiment: Inhibition of Camk4
[19] = biological target: Mitogen-activated protein kinase 1 (Homo sapiens, UniProt P28482); experiment: Inhibition of ERK2
[20] = biological target: Serine/threonine-protein kinase 3 (Homo sapiens, UniProt Q13188); experiment: Inhibition of MST2
Serine/threonine-protein kinase 3, sequence (Q13188 whole entry): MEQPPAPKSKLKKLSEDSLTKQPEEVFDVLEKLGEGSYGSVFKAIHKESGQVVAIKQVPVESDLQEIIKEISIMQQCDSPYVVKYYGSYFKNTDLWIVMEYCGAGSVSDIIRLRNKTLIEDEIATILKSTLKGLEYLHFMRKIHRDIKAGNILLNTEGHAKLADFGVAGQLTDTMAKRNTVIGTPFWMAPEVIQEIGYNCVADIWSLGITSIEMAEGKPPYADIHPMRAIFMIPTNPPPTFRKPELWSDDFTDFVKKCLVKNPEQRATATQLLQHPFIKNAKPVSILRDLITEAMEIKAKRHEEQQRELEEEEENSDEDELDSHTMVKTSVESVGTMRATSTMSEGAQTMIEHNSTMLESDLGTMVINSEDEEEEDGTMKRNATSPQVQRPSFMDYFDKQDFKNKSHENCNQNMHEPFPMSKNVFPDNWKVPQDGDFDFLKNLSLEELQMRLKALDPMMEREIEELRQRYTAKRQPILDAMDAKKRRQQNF

[21] = Plasma protein binding in human; assay type: ADME, cell-free; conditions: read-out: PPB (converted)
[22] = biological target: Inhibitor of nuclear factor kappa-B kinase subunit beta (Homo sapiens, UniProt O14920); experiment: Inhibition of IKKb
[23] = biological target: Tyrosine-protein kinase JAK2 (Homo sapiens, UniProt O60674); experiment: Inhibition of Jak2

## Cc1cc(Nc2nccn3c(-c4cn[nH]c4)cnc23)sn1
Aurora kinase A
  IC50: ≤ 4 nM
cells
  EC50: 1300 nM
Aurora kinase B; read-out: IC50
  IC50: ≤ 13 nM

## CSc1cn2c(-c3cn[nH]c3)cnc2c(Nc2cc(C)ns2)n1
[1]
  IC50: 1310 nM
[2]
  hepatocyte CLint: 49.7 µL/min/1e6 cells
[3]
  bioavailability: 4%
[4]
  IC50: > 10000 nM
[5]
  IC50: > 10000 nM
[6]
  Papp A→B: 63.3 ×10⁻⁶ cm/s
[7]
  clearance: 89 mL/min/kg
[8]
  IC50: 167 nM
[9]
  IC50: 36 nM
Cytochrome P450 2D6
  INH: > 20 µM
[10]
  IC50: 468 nM
Cytochrome P450 2C9
  INH: > 20 µM
[11]
  IC50: > 10000 nM
Cytochrome P450 3A4
  INH: > 20 µM
[12]
  IC50: > 10000 nM
[13]
  IC50: > 10000 nM
cells
  EC50: 600 nM
[14]
  IC50: 187 nM
[15]
  IC50: > 10000 nM
[16]
  IC50: 785 nM
[17]
  solubility: 25 µM (≈ 8.59 µg/mL)
hERG (KCNH2)
  inhibition at 1.5 ug/ml: 8.7%
[18]
  IC50: > 10000 nM
[19]
  IC50: > 10000 nM
[20]
  IC50: > 10000 nM
[21]
  fraction unbound: 0.006
Aurora kinase B; read-out: IC50
  IC50: ≤ 13 nM
[22]
  IC50: > 10000 nM
[23]
  IC50: > 10000 nM

## Cc1cc(Nc2nc(C)cn3c(-c4cn[nH]c4)cnc23)sn1
cells
  EC50: 250 nM
Aurora kinase B; read-out: IC50
  IC50: ≤ 13 nM

## Cc1cc(Nc2nc(-c3cccnc3)cn3c(-c4cn[nH]c4)cnc23)sn1
Aurora kinase A
  IC50: 8 nM
cells
  EC50: > 10000 nM
Aurora kinase B; read-out: IC50
  IC50: 62 nM

## Cc1cc(Nc2nccn3c(-c4cnn(C)c4)cnc23)sn1
Aurora kinase A
  IC50: 570 nM
Aurora kinase B; read-out: IC50
  IC50: 360 nM

## CC(C)c1cc(Nc2nccn3c(-c4cnn(C)c4)cnc23)sn1
Aurora kinase A
  IC50: 640 nM
Aurora kinase B; read-out: IC50
  IC50: 700 nM

## Cn1cc(-c2cnc3c(Nc4cc(C5CCNCC5)ns4)nccn23)cn1
Aurora kinase A
  IC50: 1600 nM
Aurora kinase B; read-out: IC50
  IC50: 200 nM

## Cn1cc(-c2cnc3c(Nc4cc(C5CCN(S(C)(=O)=O)CC5)ns4)nccn23)cn1
Aurora kinase A
  IC50: 170 nM
Aurora kinase B; read-out: IC50
  IC50: 110 nM

## Cc1nsc(Nc2nccn3c(-c4cnn(C)c4)cnc23)n1
Aurora kinase A
  IC50: > 10000 nM
Aurora kinase B
  IC50: Not Active

## Cc1csc(Nc2nccn3c(-c4cnn(C)c4)cnc23)n1
Aurora kinase A
  IC50: > 10000 nM
Aurora kinase B
  IC50: Not Active

## Cc1csc(Nc2nccn3c(-c4cnn(C)c4)cnc23)c1
Aurora kinase A
  IC50: 2500 nM
Aurora kinase B; read-out: IC50
  IC50: 3000 nM

## CN(C)c1cccc(Nc2nccn3c(-c4cnn(C)c4)cnc23)c1
Aurora kinase A
  IC50: > 10000 nM
Aurora kinase B
  IC50: Not Active

## CN(C)S(=O)(=O)c1ccc(Nc2nccn3c(-c4cnn(C)c4)cnc23)cc1
Aurora kinase A
  IC50: 3700 nM
Aurora kinase B
  IC50: Not Active

## CS(=O)(=O)N1CCC(c2cc(Nc3nccn4c(-c5cn[nH]c5)cnc34)sn2)CC1
Aurora kinase A
  IC50: 6 nM
cells
  EC50: 1300 nM
Aurora kinase B; read-out: IC50
  IC50: 18 nM

## O=S(=O)(c1ccc(Nc2nccn3c(-c4cn[nH]c4)cnc23)cc1)N1CCOCC1
Aurora kinase A
  IC50: 81 nM
Aurora kinase B; read-out: IC50
  IC50: 120 nM

## Cc1cc(Nc2nc(CN3CCOCC3)cn3c(-c4cn[nH]c4)cnc23)sn1
Aurora kinase A
  IC50: 50 nM
cells
  EC50: > 10000 nM
Aurora kinase B; read-out: IC50
  IC50: 110 nM

## Cc1cc(Nc2nc(C(F)(F)F)cn3c(-c4cn[nH]c4)cnc23)sn1
Aurora kinase A
  IC50: 27 nM
cells
  EC50: > 10000 nM
Aurora kinase B; read-out: IC50
  IC50: 252 nM

## CCc1cn2c(-c3cn[nH]c3)cnc2c(Nc2cc(C)ns2)n1
cells
  EC50: 850 nM
Aurora kinase B; read-out: IC50
  IC50: ≤ 13 nM

## Cc1cc(Nc2nc(CCN)cn3c(-c4cn[nH]c4)cnc23)sn1
Aurora kinase A
  IC50: 83 nM
cells
  EC50: > 10000 nM
Aurora kinase B; read-out: IC50
  IC50: 33 nM

## Cc1cc(Nc2nc(C3CC3)cn3c(-c4cn[nH]c4)cnc23)sn1
Aurora kinase A
  IC50: 17 nM
cells
  EC50: 2600 nM
Aurora kinase B; read-out: IC50
  IC50: 51 nM

## Cc1cc(Nc2nc(C#N)cn3c(-c4cn[nH]c4)cnc23)sn1
Aurora kinase A
  IC50: 46 nM
cells
  EC50: > 10000 nM
Aurora kinase B; read-out: IC50
  IC50: 219 nM

## Cc1cc(Nc2nc(S(C)(=O)=O)cn3c(-c4cn[nH]c4)cnc23)sn1
Aurora kinase A
  IC50: 603 nM
Aurora kinase B; read-out: IC50
  IC50: > 3000 nM

## CCSc1cn2c(-c3cn[nH]c3)cnc2c(Nc2cc(C)ns2)n1
Aurora kinase B; read-out: IC50
  IC50: 24 nM

## Cc1cc(Nc2nc(SCCN(C)C)cn3c(-c4cn[nH]c4)cnc23)sn1
cells
  EC50: > 10000 nM

## Cc1cc(Nc2nc(SC(C)(C)C)cn3c(-c4cn[nH]c4)cnc23)sn1
cells
  EC50: 5600 nM
Aurora kinase B; read-out: IC50
  IC50: 272 nM

## Cc1cc(Nc2nc(Sc3ccc(F)cc3)cn3c(-c4cn[nH]c4)cnc23)sn1
cells
  EC50: 2500 nM
Aurora kinase B; read-out: IC50
  IC50: 129 nM

## Cc1cc(Nc2nc([S+](C)[O-])cn3c(-c4cn[nH]c4)cnc23)sn1 (racemic)
Aurora kinase A
  IC50: 30 nM
cells
  EC50: > 10000 nM
Aurora kinase B; read-out: IC50
  IC50: 185 nM
